Test results as given in US4087540A, “Octahydro-N-[(trichloromethyl)thio]-naphthalenedicarboximides” (Sterling Drug Inc., priority 1977, dated 1978).

Assays:
fungus [1] = assay: fungicidal activity (general); conditions: for fungicidal activity: in words
Excerpt: (§1) In order to find a fungicide with high solubility in petroleum hydrocarbons, numerous N-trichloromethylthio compounds have been synthesized and tested for activity and solubility. […] Rather, activity is associated with certain structural features.

Candida albicans = assay: minimum inhibitory concentration against Candida albicans; type: cell-based; conditions: microorganism 7, Candida albicans
Excerpt: (§2) These properties appear to be associated with the octahydronaphthalene structure of the compounds. Thus when the anhydride VIII (Z=O) was converted to the corresponding N-[(trichloromethyl)thio]-imide (VIII, Z=N--S--CCl3) the surprising observation was made that the cyclized compound IC has about five times the fungicidal activity, and against staphylococcus aureus about 100 times the activity, of the uncyclized compound VIII (Z=N--S--CCl3) and that the latter compound had only one-fifth the solubility of compound IC. The solubility data and minimum inhibitory concentration against several microorganisms for these two compounds as well as the known fungicide Captan are presented in the following table.

Aspergillus niger = assay: minimum inhibitory concentration against Aspergillus niger; type: cell-based; conditions: microorganism 3, Aspergillus niger
Excerpt: as §2

[2] = B. A. Richardson; cited from earlier work
fungus [3] = conditions: cited from earlier work; for properties as fungicidal additives to paints: Fette, Seifen, Anstrichmittel 1966
Staphylococcus aureus = assay: minimum inhibitory concentration against Staphylococcus aureus; type: cell-based; conditions: for Minimum Inhibitory Concentration (%): microorganism 1, Staphylococcus aureus
Excerpt: as §2

Pullularia pullulans = assay: minimum inhibitory concentration against Pullularia pullulans; type: cell-based; conditions: microorganism 5, Pullularia pullulans
Excerpt: as §2

Penicillium glaucum = assay: minimum inhibitory concentration against Penicillium glaucum; type: cell-based; conditions: microorganism 2, Penicillium glaucum
Excerpt: as §2

[4] = type: physicochemical; conditions: in words
Excerpt: as §1

Saccharomyces cerevisiac = assay: minimum inhibitory concentration against Saccharomyces cerevisiac; type: cell-based; conditions: microorganism 6, Saccharomyces cerevisiac
Excerpt: as §2

Sclerophoma pityophila = assay: minimum inhibitory concentration against Sclerophoma pityophila; type: cell-based; conditions: microorganism 4, Sclerophoma pityophila
Excerpt: as §2

blue discoloration = conditions: E. Hoffman and A. Saracz; cited from earlier work
[5] = cited from earlier work
[6] = solubility in mineral spirits; type: physicochemical; conditions: VIII (Z=N--S--CCl3) vs IC
Excerpt: as §2

O=C1C2C3c4ccccc4C(c4ccccc43)C2C(=O)N1SC(Cl)(Cl)Cl (centres unmarked)
fungicidal activity (fungus [1]): inactive

CC12CCC(C(=O)N(SC(Cl)(Cl)Cl)C1=O)C2(C)C (centres unmarked)
fungicidal activity (fungus [1]): inactive

CCCCCCCCCCCCCCCCC1CC(=O)N(SC(Cl)(Cl)Cl)C1=O (centres unmarked)
fungicidal activity (fungus [1]): inactive

O=C1Cc2ccccc2C(=O)N1SC(Cl)(Cl)Cl
fungicidal activity (fungus [1]): inactive

O=C1C2CC=CCC2C(=O)N1SC(Cl)(Cl)Cl (centres unmarked) [Captan]
Minimum Inhibitory Concentration (%) (Candida albicans): 0.01%
Minimum Inhibitory Concentration (%) (Aspergillus niger): 0.05%
solubility in paints [2]: low solubility
fungicidal effectiveness in paints (fungus [3]; owing to its low solubility in paints, B. A. Richardson): practically ineffective
Minimum Inhibitory Concentration (%) (Staphylococcus aureus): 0.05%
Minimum Inhibitory Concentration (%) (Pullularia pullulans): 0.005%
Minimum Inhibitory Concentration (%) (Penicillium glaucum): 0.01%

CC1=C2CCC(C)CC2C2C(=O)N(SC(Cl)(Cl)Cl)C(=O)C2C1 (centres unmarked) [IA, 1,2,3,5,6,7,8,8a-octahydro-4,7-dimethyl-N-[(trichloromethyl)-thio]-1,2-naphthalenedicarboximide]
fungicidal activity (fungus [1]): excellent fungicidal activity
solubility in petroleum hydrocarbons [4]: good solubility in petroleum hydrocarbons

CC1(C)C2CC3C(=CCC4C(=O)N(SC(Cl)(Cl)Cl)C(=O)C43)C1C2 (centres unmarked) [IB, 1,2,3,4,4a,5,6,7-octahydro-2,2-dimethyl-N-[(trichloromethyl)thio]-1,3-methanonaphthalene-5,6-dicarboximide]
fungicidal activity (fungus [1]): excellent fungicidal activity
solubility in petroleum hydrocarbons [4]: good solubility in petroleum hydrocarbons

CC1(C)CCCC2=C1CC1C(=O)N(SC(Cl)(Cl)Cl)C(=O)C1C2 (centres unmarked) [IC, 1,2,3,4,5,6,7,8-octahydro-5,5-dimethyl-N-[(trichloromethyl)thio]-2,3-naphthalenedicarboximide]
Minimum Inhibitory Concentration (%) (Candida albicans): 0.001%
fungicidal activity relative to uncyclized compound VIII (Z=N--S--CCl3) (fungus [1]; IC vs VIII): about five
fungicidal activity (fungus [1]): excellent fungicidal activity
Minimum Inhibitory Concentration (%) (Aspergillus niger): 0.01%
activity against staphylococcus aureus relative to uncyclized compound VIII (Z=N--S--CCl3) (Staphylococcus aureus; IC vs VIII): about 100 times
Minimum Inhibitory Concentration (%) (Staphylococcus aureus): 0.01%
Minimum Inhibitory Concentration (%) (Saccharomyces cerevisiac): 0.001%
Minimum Inhibitory Concentration (%) (Sclerophoma pityophila): 0.001%
solubility in petroleum hydrocarbons [4]: good solubility in petroleum hydrocarbons
Minimum Inhibitory Concentration (%) (Pullularia pullulans): 0.001%
Minimum Inhibitory Concentration (%) (Penicillium glaucum): 0.001%

O=C1c2ccccc2C(=O)N1SC(Cl)(Cl)Cl [III]
sufficiency of 1% to prevent blue discoloration (blue discoloration): insufficient to prevent blue discoloration

O=C1C2CCCCC2C(=O)N1SC(Cl)(Cl)Cl (centres unmarked) [IV]
solubility in petroleum ether [5]: 0.3%

CC(C)=CCCC1=CCC2C(=O)N(SC(Cl)(Cl)Cl)C(=O)C2C1 (centres unmarked) [VIII]
Minimum Inhibitory Concentration (%) (Candida albicans): 0.01%
Minimum Inhibitory Concentration (%) (Aspergillus niger): 0.01%
Minimum Inhibitory Concentration (%) (Staphylococcus aureus): 1%
Minimum Inhibitory Concentration (%) (Saccharomyces cerevisiac): 0.005%
Minimum Inhibitory Concentration (%) (Sclerophoma pityophila): 0.005%
solubility relative to compound IC [6]: one-fifth
Minimum Inhibitory Concentration (%) (Pullularia pullulans): 0.005%
Minimum Inhibitory Concentration (%) (Penicillium glaucum): 0.005%

CN(C)S(=O)(=O)N(SC(F)(Cl)Cl)c1ccccc1 [VI]
properties as fungicidal additives to paints (fungus [3]): useful properties

O=C1c2ccccc2C(=O)N1SC(F)(Cl)Cl [V]
properties as fungicidal additives to paints (fungus [3]): useful properties
